{"source": "patent US6355799B1", "about": "“Substituted benzene compounds, process for their preparation, and herbicidal and defoliant compositions containing them” (ISK Americas Incorporated, priority 1997, dated 2002)", "type_in_all_cases": "in vivo", "key": {"[1]": {"tested_on": "field corn (Zea mays L., var. Dekalb 535, CORN)", "test": "Pre-emerge test, crop safety", "settings": "pre-emerge, rated 14 days after application, 0 = no damage, 100 = complete death", "in_short": "(§1)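 Applied at 15–1000 g ai/ha from acetone in 187 l/ha spray volume. Post-emergence applications included 0.25% v/v non-ionic surfactant and reached plants sown 8–21 days before. Pre-emergence applications were incorporated by surface watering. Efficacy or crop damage was rated on a 0–100 scale after 14 days.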"}, "[2]": {"tested_on": "upland rice (Oryza sp., var. Tebonnet, RICE)", "test": "Pre-emerge test, crop safety", "settings": "pre-emerge, rated 14 days after application, 0 = no damage, 100 = complete death", "in_short": "as §1"}, "[3]": {"tested_on": "johnsongrass (Sorghum halepense, SORHA)", "test": "Post-emerge test, greenhouse herbicide activity screening", "settings": "phytotoxicity rating 0-100 (0 no damage, 100 complete death), 14 days after application", "in_short": "(§2)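 Compounds in acetone were track-sprayed at 187 l/ha, 15–1000 g ai/ha, onto sandy loam pots. Pre-emerge seeds were sown one day before spraying, with surface watering afterwards. Post-emerge plants were at the 2–3 leaf stage and sprayed with 0.25% v/v non-ionic surfactant. Injury was rated 0–100 at 14 days.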"}, "[4]": {"tested_on": "large crabgrass (Digitaria sanguinalis, DIGSA)", "test": "Post-emerge test, greenhouse herbicide activity screening", "settings": "phytotoxicity rating 0-100 (0 no damage, 100 complete death), 14 days after application", "in_short": "as §2"}, "[5]": {"tested_on": "green foxtail (Setaria viridis, SETVI)", "test": "Post-emerge test, greenhouse herbicide activity screening", "settings": "phytotoxicity rating 0-100 (0 no damage, 100 complete death), 14 days after application", "in_short": "as §2"}, "[6]": {"tested_on": "sicklepod (Cassia obtusifolia, CASOB)", "test": "Post-emerge test, greenhouse herbicide activity screening", "settings": "phytotoxicity rating 0-100 (0 no damage, 100 complete death), 14 days after application", "in_short": "as §2"}, "[7]": {"tested_on": "common ragweed (Ambrosia artemisizfolia L., AMBEL)", "test": "Post-emerge test, greenhouse herbicide activity screening", "settings": "phytotoxicity rating 0-100 (0 no damage, 100 complete death), 14 days after application", "in_short": "as §2"}, "[8]": {"tested_on": "barnyardgrass (Echinochloa crus-galli, ECHCG)", "test": "Post-emerge test, greenhouse herbicide activity screening", "settings": "phytotoxicity rating 0-100 (0 no damage, 100 complete death), 14 days after application", "in_short": "as §2"}, "[9]": {"tested_on": "redroot pigweed (Amaranthus retroflexus, AMARE)", "test": "Post-emerge test, greenhouse herbicide activity screening", "settings": "phytotoxicity rating 0-100 (0 no damage, 100 complete death), 14 days after application", "in_short": "as §2"}, "[10]": {"tested_on": "velvetleaf (Abutilon theophrasti, ABUTH)", "test": "Post-emerge test, greenhouse herbicide activity screening", "settings": "phytotoxicity rating 0-100 (0 no damage, 100 complete death), 14 days after application", "in_short": "as §2"}, "[11]": {"tested_on": "lambsquarters (Chenopodium album, CHEAL)", "test": "Post-emerge test, greenhouse herbicide activity screening", "settings": "phytotoxicity rating 0-100 (0 no damage, 100 complete death), 14 days after application", "in_short": "as §2"}, "[12]": {"tested_on": "ivyleaf morningglory (Ipomoea hederacea, IPOHE)", "test": "Post-emerge test, greenhouse herbicide activity screening", "settings": "phytotoxicity rating 0-100 (0 no damage, 100 complete death), 14 days after application", "in_short": "as §2"}, "[13]": {"tested_on": "field corn (Zea mays L., var. Dekalb 535, CORN)", "test": "Post-emerge test, crop safety", "settings": "phytotoxicity rating 0-100 (0 no damage, 100 complete death), 14 days after application", "in_short": "as §2"}, "[14]": {"tested_on": "upland rice (Oryza sp., var. Tebonnet, RICE)", "test": "Post-emerge test, crop safety", "settings": "phytotoxicity rating 0-100 (0 no damage, 100 complete death), 14 days after application", "in_short": "as §2"}, "[15]": {"tested_on": "redroot pigweed (Amaranthus retroflexus, AMARE)", "test": "Pre-emerge test, greenhouse herbicide activity screening", "settings": "pre-emerge, rated 14 days after application, 0 = no damage, 100 = complete death", "in_short": "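Herbicidal damage is scored 0 (none) to 100 (complete plant death) two weeks after a simulated field spray. Rates span 15–1000 g ai/ha, delivered in acetone at 187 l/ha. For post-emergence treatments, plants have 2–3 leaves and the spray carries 0.25% v/v non-ionic surfactant.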"}, "[16]": {"tested_on": "johnsongrass (Sorghum halepense, SORHA)", "test": "Pre-emerge test, greenhouse herbicide activity screening", "settings": "pre-emerge, rated 14 days after application, 0 = no damage, 100 = complete death", "in_short": "as §2"}, "[17]": {"tested_on": "large crabgrass (Digitaria sanguinalis, DIGSA)", "test": "Pre-emerge test, greenhouse herbicide activity screening", "settings": "pre-emerge, rated 14 days after application, 0 = no damage, 100 = complete death", "in_short": "as §2"}, "[18]": {"tested_on": "green foxtail (Setaria viridis, SETVI)", "test": "Pre-emerge test, greenhouse herbicide activity screening", "settings": "pre-emerge, rated 14 days after application, 0 = no damage, 100 = complete death", "in_short": "as §2"}, "[19]": {"tested_on": "sicklepod (Cassia obtusifolia, CASOB)", "test": "Pre-emerge test, greenhouse herbicide activity screening", "settings": "pre-emerge, rated 14 days after application, 0 = no damage, 100 = complete death", "in_short": "as §2"}, "[20]": {"tested_on": "common ragweed (Ambrosia artemisizfolia L., AMBEL)", "test": "Pre-emerge test, greenhouse herbicide activity screening", "settings": "pre-emerge, rated 14 days after application, 0 = no damage, 100 = complete death", "in_short": "as §2"}, "[21]": {"tested_on": "barnyardgrass (Echinochloa crus-galli, ECHCG)", "test": "Pre-emerge test, greenhouse herbicide activity screening", "settings": "pre-emerge, rated 14 days after application, 0 = no damage, 100 = complete death", "in_short": "as §2"}, "[22]": {"tested_on": "velvetleaf (Abutilon theophrasti, ABUTH)", "test": "Pre-emerge test, greenhouse herbicide activity screening", "settings": "pre-emerge, rated 14 days after application, 0 = no damage, 100 = complete death", "in_short": "as §2"}, "[23]": {"tested_on": "lambsquarters (Chenopodium album, CHEAL)", "test": "Pre-emerge test, greenhouse herbicide activity screening", "settings": "pre-emerge, rated 14 days after application, 0 = no damage, 100 = complete death", "in_short": "as §2"}, "[24]": {"tested_on": "ivyleaf morningglory (Ipomoea hederacea, IPOHE)", "test": "Pre-emerge test, greenhouse herbicide activity screening", "settings": "pre-emerge, rated 14 days after application, 0 = no damage, 100 = complete death", "in_short": "as §2"}}}
{"compound": "Cn1c(C(F)(F)F)cc(=O)n(-c2c(F)cc(Cl)c(OC3CCCC3)c2N)c1=O", "note": "[Compound 1-21]", "values": [{"measurement": "Pre-emerge crop damage CORN (phytotoxicity rating, scale 0-100)", "setting": "[1]; 63 g ai/ha", "result": 0}, {"measurement": "Pre-emerge crop damage CORN (phytotoxicity rating, scale 0-100)", "setting": "[1]; 250 g ai/ha", "result": 0}, {"measurement": "Pre-emerge crop damage RICE (phytotoxicity rating, scale 0-100)", "setting": "[2]; 63 g ai/ha", "result": 0}, {"measurement": "Pre-emerge crop damage RICE (phytotoxicity rating, scale 0-100)", "setting": "[2]; 250 g ai/ha", "result": 10}, {"measurement": "Post-emerge Herbicidal Activity SORHA", "setting": "[3]; 63 g ai/ha", "result": 0}, {"measurement": "Post-emerge Herbicidal Activity SORHA", "setting": "[3]; 250 g ai/ha", "result": 0}, {"measurement": "Post-emerge Herbicidal Activity DIGSA", "setting": "[4]; 63 g ai/ha", "result": 0}, {"measurement": "Post-emerge Herbicidal Activity DIGSA", "setting": "[4]; 250 g ai/ha", "result": 0}, {"measurement": "Post-emerge Herbicidal Activity SETVI", "setting": "[5]; 63 g ai/ha", "result": 10}, {"measurement": "Post-emerge Herbicidal Activity SETVI", "setting": "[5]; 250 g ai/ha", "result": 30}, {"measurement": "Post-emerge Herbicidal Activity CASOB", "setting": "[6]; 63 g ai/ha", "result": 10}, {"measurement": "Post-emerge Herbicidal Activity CASOB", "setting": "[6]; 250 g ai/ha", "result": 30}, {"measurement": "Post-emerge Herbicidal Activity AMBEL", "setting": "[7]; 63 g ai/ha", "result": 10}, {"measurement": "Post-emerge Herbicidal Activity AMBEL", "setting": "[7]; 250 g ai/ha", "result": 30}, {"measurement": "Post-emerge Herbicidal Activity ECHCG", "setting": "[8]; 63 g ai/ha", "result": 0}, {"measurement": "Post-emerge Herbicidal Activity ECHCG", "setting": "[8]; 250 g ai/ha", "result": 0}, {"measurement": "Post-emerge Herbicidal Activity AMARE", "setting": "[9]; 63 g ai/ha", "result": 95}, {"measurement": "Post-emerge Herbicidal Activity AMARE", "setting": "[9]; 250 g ai/ha", "result": 100}, {"measurement": "Post-emerge Herbicidal Activity ABUTH", "setting": "[10]; 63 g ai/ha", "result": 85}, {"measurement": "Post-emerge Herbicidal Activity ABUTH", "setting": "[10]; 250 g ai/ha", "result": 100}, {"measurement": "Post-emerge Herbicidal Activity CHEAL", "setting": "[11]; 63 g ai/ha", "result": 75}, {"measurement": "Post-emerge Herbicidal Activity CHEAL", "setting": "[11]; 250 g ai/ha", "result": 95}, {"measurement": "Post-emerge Herbicidal Activity IPOHE", "setting": "[12]; 63 g ai/ha", "result": 70}, {"measurement": "Post-emerge Herbicidal Activity IPOHE", "setting": "[12]; 250 g ai/ha", "result": 90}, {"measurement": "Post-emerge Herbicidal Activity CORN (crop damage)", "setting": "[13]; 63 g ai/ha", "result": 5}, {"measurement": "Post-emerge Herbicidal Activity CORN (crop damage)", "setting": "[13]; 250 g ai/ha", "result": 5}, {"measurement": "Post-emerge Herbicidal Activity RICE (crop damage)", "setting": "[14]; 63 g ai/ha", "result": 10}, {"measurement": "Post-emerge Herbicidal Activity RICE (crop damage)", "setting": "[14]; 250 g ai/ha", "result": 10}, {"measurement": "Pre-emerge Herbicidal Activity AMARE (phytotoxicity rating, scale 0-100)", "setting": "[15]; 63 g ai/ha", "result": 98}, {"measurement": "Pre-emerge Herbicidal Activity AMARE (phytotoxicity rating, scale 0-100)", "setting": "[15]; 250 g ai/ha", "result": 100}, {"measurement": "Pre-emerge Herbicidal Activity SORHA (phytotoxicity rating, scale 0-100)", "setting": "[16]; 63 g ai/ha", "result": 0}, {"measurement": "Pre-emerge Herbicidal Activity SORHA (phytotoxicity rating, scale 0-100)", "setting": "[16]; 250 g ai/ha", "result": 90}, {"measurement": "Pre-emerge Herbicidal Activity DIGSA (phytotoxicity rating, scale 0-100)", "setting": "[17]; 63 g ai/ha", "result": 70}, {"measurement": "Pre-emerge Herbicidal Activity DIGSA (phytotoxicity rating, scale 0-100)", "setting": "[17]; 250 g ai/ha", "result": 100}, {"measurement": "Pre-emerge Herbicidal Activity SETVI (phytotoxicity rating, scale 0-100)", "setting": "[18]; 63 g ai/ha", "result": 95}, {"measurement": "Pre-emerge Herbicidal Activity SETVI (phytotoxicity rating, scale 0-100)", "setting": "[18]; 250 g ai/ha", "result": 100}, {"measurement": "Pre-emerge Herbicidal Activity CASOB (phytotoxicity rating, scale 0-100)", "setting": "[19]; 63 g ai/ha", "result": 0}, {"measurement": "Pre-emerge Herbicidal Activity CASOB (phytotoxicity rating, scale 0-100)", "setting": "[19]; 250 g ai/ha", "result": 0}, {"measurement": "Pre-emerge Herbicidal Activity AMBEL (phytotoxicity rating, scale 0-100)", "setting": "[20]; 63 g ai/ha", "result": 0}, {"measurement": "Pre-emerge Herbicidal Activity AMBEL (phytotoxicity rating, scale 0-100)", "setting": "[20]; 250 g ai/ha", "result": 100}, {"measurement": "Pre-emerge Herbicidal Activity ECHCG (phytotoxicity rating, scale 0-100)", "setting": "[21]; 63 g ai/ha", "result": 0}, {"measurement": "Pre-emerge Herbicidal Activity ECHCG (phytotoxicity rating, scale 0-100)", "setting": "[21]; 250 g ai/ha", "result": 95}, {"measurement": "Pre-emerge Herbicidal Activity ABUTH (phytotoxicity rating, scale 0-100)", "setting": "[22]; 63 g ai/ha", "result": 70}, {"measurement": "Pre-emerge Herbicidal Activity ABUTH (phytotoxicity rating, scale 0-100)", "setting": "[22]; 250 g ai/ha", "result": 100}, {"measurement": "Pre-emerge Herbicidal Activity CHEAL (phytotoxicity rating, scale 0-100)", "setting": "[23]; 63 g ai/ha", "result": 100}, {"measurement": "Pre-emerge Herbicidal Activity CHEAL (phytotoxicity rating, scale 0-100)", "setting": "[23]; 250 g ai/ha", "result": 100}, {"measurement": "Pre-emerge Herbicidal Activity IPOHE (phytotoxicity rating, scale 0-100)", "setting": "[24]; 63 g ai/ha", "result": 0}, {"measurement": "Pre-emerge Herbicidal Activity IPOHE (phytotoxicity rating, scale 0-100)", "setting": "[24]; 250 g ai/ha", "result": 40}]}
